“Also recorded” adds a separate entry of the source. Where two headings read alike, the source gives them in different places.
Legend:
[1] = Michaelis constant / Vmax of 2-pyrimidinone deoxyribose analogs with the liver enzyme; format: biochemical, rat; conditions: rat, liver aldehyde oxidase
Description: Rat hepatic tissue was washed with ice-cold 1.15% KCl and blotted dry. The tissue was then homogenized with a tissue homogenizer, in a volume of 1.15% KCl that was 3 times the tissue weight, to form a 25% (w/v) homogenate. The homogenate was then centrifuged at 10,000 g for 10 minutes at 4° C. The resulting supernatant was filtered through Miracloth (similar to cheese cloth) then dialyzed overnight against 50 mM Tris-HCl buffer pH 7.5 and stored at -80° C. before use. Rat hepatocytes were obtained by a perfusion technique then the cells were extracted with 10 mM phosphate buffer, pH 7.5, containing 1M KCl and dialyzed for 4 hours against 50 mM Tris-HCl buffer pH 7.5.
For the standard assay condition, the reaction mixture contained 50 mM Tris-HCl, pH 7.5, 1 mM EDTA, 180 μM of IPdR (or its analogs) and approximately 0.01 mg protein of 10,000 g supernatant of tissue homogenate in a final volume of 500 μl and the incubation was at 37° C. for 10 minutes unless specified otherwise. 300 μl of reaction mixture was removed at the end of incubation and mixed with 630 μl acetonitrile then agitated. The precipitated protein were removed by centrifugation and the supernatant was lyophilized to dryness. The samples were reconstituted to the original aliquot volume with the HPLC mobile phase buffer and analyzed on a Alltech RP-18 column. IPdR, IUdR and IU were detected at a UV absorption wavelength of 230 nm, and IPdR was also detected at a UV absorption wavelength of 335 nm. The mobile phase was 10% acetonitrile/90%mM ammonium acetate, pH 6.8 and the flow rate was 1 ml/minute. Standard curves of IPdR and IUdR were established from the integration value of known concentrations.
Several 2-pyrimidinone deoxyribose analogs were examined for the conversion to their deoxyuridine counterparts. […] Nevertheless the relative Vmax for IPdR in the reaction at pH 7.5 and pH 9.5 is the same. […] The synthetic substrates for aldehyde oxidase appear to be better than its natural substrates, N^1 -methylnicotinamide and acetaldehyde, as judged by the potency of inhibition of N^1 -methylnicotinamide and acetaldehyde to the IPdR oxidation reaction (Table IV). The rate of reactivity of the liver enzyme with different IPdR analogs follows the order EPdR, IP, IPdR, 5-bromo-2-pyrimidinone deoxyribose (BPdR) and 5-methyl-2-pyrimidinone deoxyribose (MPdR) or 5-ethyl-2-pyrimidinone deoxyribose (EtPdR) (Table V). Electronegative substituents in the 5-position seemed to increase the substrate activity in this oxidation reaction.

[2] = test system: Xanthine oxidase; experiment: Conversion of IPdR to IUdR by xanthine oxidase; format: biochemical; conditions: isolated from cow milk
Source text: (§1) In order to determine which enzyme is responsible for the catalysts of this IPdR oxidation, a series of known oxido-reductases which have similar capability to oxidize a carbon atom with an adjacent amino group into a carbonyl functionality were explored for their ability to catalyze IPdR oxidation. […] A mixed function oxidase system prepared from the microsome of rat liver a broad spectrum of substrates and is NADPH dependent. […] Alcohol dehydrogenase (which can be obtained from Sigma) and alcohol oxidase (which can be obtained from Sigma) both reside in the soluble fraction of liver cell extracts, but the conversion of IPdR to […] was not detected with purified preparation of either enzyme under the same conditions that they converted their natural substrates effectively. […]

[3] = test system: Alcohol dehydrogenase; experiment: IPdR conversion by alcohol dehydrogenase; format: biochemical; conditions: purified preparation
Source text: as §1

[4] = test system: rat liver homogenate; experiment: HPLC time course of conversion of IPdR by rat liver homogenate; format: in vitro ADME
Description: FIGS. 1A-1C depict HPLC profiles of the conversion of IPdR to IUdR by liver homogenate. IPdR was incubated with rat liver homogenate. For control reactions, a portion of the supernatant was boiled for 5 minutes to inactivate all enzymes before use. The assay condition was as described hereinafter except 60 μl of the 100,000 g×60 minute supernatant (equivalent to approximately 0.5 mg protein/ml) was used in a reaction volume of 1500 μl . […]
For the standard assay condition, the reaction mixture contained 50 mM Tris-HCl, pH 7.5, 1 mM EDTA, 180 μM of IPdR (or its analogs) and approximately 0.01 mg protein of 10,000 g supernatant of tissue homogenate in a final volume of 500 μl and the incubation was at 37° C. for 10 minutes unless specified otherwise. […] The samples were reconstituted to the original aliquot volume with the HPLC mobile phase buffer and analyzed on a Alltech RP-18 column. IPdR, IUdR and IU were detected at a UV absorption wavelength of 230 nm, and IPdR was also detected at a UV absorption wavelength of 335 nm. […]
To study the conversion of IPdR to IUdR by liver enzyme the metabolites of IPdR were analyzed after incubation with a supernatant of rat liver homogenate using a reverse phase HPLC technique. IPdR and IUdR could be detected at an absorption wavelength of 230 nm but only IPdR could be detected at 335 nm. […]

[5] = test system: liver and tumor tissue; experiment: Thymidine replacement in liver and tumor tissue of athymic nude mice having metastatic tumors; format: in vivo; conditions: 100, 250, 500 mg/kg/d (FIG. 7)
Description: Mice were administered daily dosages of 0, 100, 250 and 500 mg/kg/d to determine thymidine replacement in liver and tumor tissue. The results presented in FIG. 7 are presented as mean percent thymidine replacement ± one standard error of the mean. n≥3 (control tumors n=2).

[6] = test system: Xanthine oxidase; conditions: shown previously (Lewandowski et al. 1989); cited from earlier work
[7] = test system: HSV-1; conditions: Lewandowski et al. 1989; cited from earlier work

## O=c1ncc(I)cn1[C@H]1C[C@H](O)[C@@H](CO)O1 [IPdR, 1-(2-deoxy-β-D-ribofuranosyl)-5-(iodo)-2-pyrimidinone]
[1]; pH 7.5
  Km: 150 µM
[1]; pH 9.5
  Km: 87 µM
[2]
  conversion of IPdR to IUdR by xanthine oxidase: failed to convert IPdR to IUdR
[3]
  conversion of IPdR by alcohol dehydrogenase: not detected
[4]; 37° C., 0, 15, 30 minutes (FIG. 1)
  conversion of IPdR to IUdR over time: time dependent conversion of IPdR to IUdR
[4]; IUdR
  product produced from IPdR: IUdR appeared to be the only product
[5]
  percent thymidine replacement in tumor: increasing tumor incorporation; also recorded: increasing percent replacement
[5]; normal liver
  percent incorporation in liver: negligible; also recorded: very small percent incorporation
[6]
  conversion of IPdR to IUdR by xanthine oxidase: could not be converted to IUdR
[7]
  activity against HSV-1 in cell culture: potent activity

Source: patent US5728684A, “Determination of prodrugs metabolizable by the liver and therapeutic use thereof” (priority 1994, dated 1998)
